Converted amounts (≈) assume the structure as drawn. Read-outs that look alike come from different tables or passages of the source.

From patent publication US4245107A, “Cephalosporin derivatives and process for preparing the same” (Asahi Kasei Kogyo Kabushiki Kaisha, priority 1974, dated 1981) come the findings set out here.

What all share (type): cell-based
In assay [1] the test system is Salmonella enteritidis gaertner. Put plainly: MIC against Salmonella enteritidis gaertner.
Another assay deals with Pseudomonas aeruginosa. Put plainly: MIC against Pseudomonas aeruginosa (strain not given).
The next assay concerns Shigella sonnei E 33. Put plainly: MIC against Shigella sonnei E 33.
The next assay deals with Proteus rettgeri, ACR. Put plainly: MIC against Proteus rettgeri ACR. The conditions noted are these: for MIC: Providencia rettgeri.
The subject of a further assay is Escherichia coli, W 3630. Put plainly: MIC against Escherichia coli W 3630.
The subject of assay [2] is Klebsiella pneumoniae, ATCC 10031. Put plainly: MIC against Klebsiella pneumoniae ATCC 10031.
A further assay deals with Escherichia coli, NIHJ. Put plainly: MIC against Escherichia coli NIHJ.
The test system of assay [3] is Staphylococcus aureus, MS 27. Put plainly: MIC against Staphylococcus aureus MS 27.
Assay [4] has as its system Staphylococcus aureus, ATCC 6538 P. Put plainly: MIC against Staphylococcus aureus ATCC 6538 P.
The subject of a further assay is Proteus vulgaris, OX 19. Put plainly: MIC against Proteus vulgaris OX 19. The conditions noted are these: for minimum inhibitory concentration (MIC): Table 3.
The subject of another assay is Enterobacter 0655. Put plainly: MIC against Enterobacter 0655.
For assay [5], the system named is Pseudomonas aeruginosa, IAM 1095. Put plainly: MIC against Pseudomonas aeruginosa IAM 1095.
In another assay the test system is Escherichia coli, RGN 14. Put plainly: MIC against Escherichia coli RGN 14. The conditions noted are these: Table 3.
For assay [6], the system named is Escherichia coli, RGN 238. Put plainly: MIC against Escherichia coli RGN 238. The note with it: Table 3.
The subject of assay [7] is Gram-positive bacteria and Gram-negative bacteria. Put plainly: antimicrobial / bacterium-inhibiting activity (in words).
The mark [8] stands for this setting: Table 1, read-out: minimum inhibitory concentration (MIC).
[9] abbreviates: Table 3, read-out: minimum inhibitory concentration (MIC).

As to `CC(=O)OCC1=C(C(=O)O)N2C(=O)C(NC(=O)C[S+]([O-])c3cccs3)C2SC1` (single isomer, unassigned) [Comparative Example, 7-(2-thienylsulfinylacetamido)cephalosporanicacid, reference compound], the “minimum inhibitory concentration (MIC)” value was found to be 12.5 µg/mL (≈ 28.1 µM) in assay [1] (Table 1); 100 µg/mL (≈ 225 µM) in the assay on Pseudomonas aeruginosa (Table 1); 25 µg/mL (≈ 56.2 µM) with Shigella sonnei E 33 (Table 1); 100 µg/mL (≈ 225 µM) in the assay with Proteus rettgeri, ACR (Table 1); 50 µg/mL (≈ 112 µM) in the assay with Escherichia coli, W 3630 (Table 1); 6.3 µg/mL (≈ 14.2 µM) in assay [2] (Table 1). The “minimum inhibitory concentration (MIC)” value in the assay on Escherichia coli, NIHJ (Table 1) was 6.3 µg/mL (≈ 14.2 µM); in assay [3] (Table 1, ATCC MS 27) it was 6.3 µg/mL (≈ 14.2 µM); in assay [4] (Table 1, ATCC 6538 P), 1.6 µg/mL (≈ 3.6 µM).

Regarding `CC(=O)OCC1=C(C(=O)O)N2C(=O)C(NC(=O)C[S+]([O-])c3cccs3)C2SC1` (single isomer, unassigned) [Example 1, 7-(2-thienylsulfinylacetamido)cephalosporanic acid], the “minimum inhibitory concentration (MIC)” value in [1] (Table 1) was 1.6 µg/mL (≈ 3.6 µM); in the assay with Shigella sonnei E 33 (Table 1), 3.1 µg/mL (≈ 6.97 µM); in assay [2] (Table 1), 0.8 µg/mL (≈ 1.8 µM); in the assay with Escherichia coli, NIHJ (Table 1), 1.6 µg/mL (≈ 3.6 µM); in assay [3] (Table 1, ATCC MS 27) it was 1.6 µg/mL (≈ 3.6 µM). For the same molecule, the MIC in the assay with Pseudomonas aeruginosa (setting [8]) came to 100 µg/mL (≈ 225 µM); in the assay on Proteus rettgeri, ACR (setting [8]) it was 100 µg/mL (≈ 225 µM); in [4] (ATCC6538, Table 1, ATCC 6538 P, read-out: minimum inhibitory concentration (MIC)) it was 0.8 µg/mL (≈ 1.8 µM).

In the case of `CC(=O)OCC1=C(C(=O)O)N2C(=O)C(NC(=O)C[S+]([O-])c3ccccc3)C2SC1` (single isomer, unassigned) [Example 19, 7-(phenylsulfinylacetamido)cephalosporanic acid], the “minimum inhibitory concentration (MIC)” value in assay [1] (Table 3) is reported as 3.2; in the assay on Proteus vulgaris, OX 19, 1.6; in the assay with Shigella sonnei E 33 (Table 3), 6.3; in the assay with Escherichia coli, RGN 14 it was 12.5; in [2] (Table 3), 1.6; with Escherichia coli, NIHJ (Table 3), 1.6. In addition, the “minimum inhibitory concentration (MIC)” value is reported as 0.8 in assay [3] (Table 3, MS 27) and 0.2 in [4] (Table 3, 6538 P). For the same molecule, the MIC amounted to 100 µg/mL (≈ 228 µM) in the assay on Enterobacter 0655 (setting [9]); 100 µg/mL (≈ 228 µM) in assay [5] (IAM1095, Table 3, read-out: minimum inhibitory concentration (MIC)); 100 µg/mL (≈ 228 µM) with Proteus rettgeri, ACR (setting [9]).

`CC(=O)OCC1=C(C(=O)O)N2C(=O)C(NC(=O)C[S+]([O-])c3ccccc3)C2SC1` (single isomer, unassigned) [comparative product, 7-(Phenylsulfinylacetamido)cephalosporanic acid, reference compound]: the “minimum inhibitory concentration (MIC)” value in assay [1] (Table 3) was 50; in the assay on Proteus vulgaris, OX 19, 100; in [6], 100; in the assay on Enterobacter 0655 (Table 3), 100; in the assay on Shigella sonnei E 33 (Table 3), 100; in assay [5] (Table 3), 100. In addition, the “minimum inhibitory concentration (MIC)” value came out at 100 in the assay on Proteus rettgeri, ACR (Table 3); 100 in the assay on Escherichia coli, W 3630 (Table 3); 100 with Escherichia coli, RGN 14; 50 in assay [2] (Table 3); 100 in the assay with Escherichia coli, NIHJ (Table 3); 50 in assay [3] (Table 3, MS 27). For the same molecule, the “minimum inhibitory concentration (MIC)” value in assay [4] (Table 3, 6538 P) was determined as 25.

As for `Cc1nnc(SCC2=C(C(=O)O)N3C(=O)C(NC(=O)C[S+]([O-])c4cccs4)[C@H]3SC2)s1` (stereo partly drawn) [Example 3, 7-(2-thienylsulfinylacetamido)-3-(5-methyl-1,3,4-thiadiazol-2-ylthiomethyl)-3-cephem-4-carboxylic acid], the “minimum inhibitory concentration (MIC), in words” value in [7] (versus product similarly derived from the compound of the Comparative Example) was “much superior”.

On to `Cn1nnnc1SCC1=C(C(=O)[O-])N2C(=O)C(NC(=O)C[S+]([O-])c3cccs3)[C@H]2SC1.[Na+]` (stereo partly drawn) [Example 4, sodium 7-(2-thienylsulfinylacetamido)-3-(1-methyl-1H-tetrazol-5-ylthiomethyl)-3-cephem-4-carboxylate], for which the bacterium-inhibiting activity entry in assay [7] (versus product derived in the same manner from 2-thienylsulfinylacetic acid having [α]D^22° of -9.2°) is reported as “much superior”.

As to `O=C(C[S+]([O-])c1cccs1)NC1C(=O)N2C(C(=O)[O-])=C(C[n+]3ccccc3)CSC12` (stereo not drawn) [Example 6, 7-(2-thienylsulfinylacetamido)-3-(1-pyridiniummethyl)-3-cephem-4-carboxylate], the antimicrobial activity result in assay [7] is listed as “excellent”.

`CC1=C(C(=O)O)N2C(=O)C(NC(=O)C[S+]([O-])c3cccs3)[C@H]2SC1` (stereo partly drawn) [Example 7, 7-(2-thienylsulfinylacetamido)-3-methyl-3-cephem-4-carboxylic acid]: in [7] (versus product from 2-thienylsulfinylacetic acid having a negative specific rotary power), the microbial activity entry is “much superior”.

In the case of `CC(=O)OCC1=C(C(=O)O)N2C(=O)C(NC(=O)C[S+]([O-])c3ccncc3)C2SC1` (stereo not drawn) [Example 10, 7-(4pyridylsulfinylacetamido)cephalosporanic acid], the MIC was 3.2 µg/mL (≈ 7.28 µM) in assay [1] (Salmonella enterica, ENTERITIDIS, Table 2); 1.6 µg/mL (≈ 3.64 µM) against Proteus vulgaris, OX 19 (OX19, Table 2); 6.3 µg/mL (≈ 14.3 µM) in the assay on Shigella sonnei E 33 (Shigella sonnei, E33, Table 2); 100 µg/mL (≈ 228 µM) with Proteus rettgeri, ACR (Table 2, read-out: MIC); 12.5 µg/mL (≈ 28.4 µM) with Escherichia coli, W 3630 (W3630, Table 2); 0.8 µg/mL (≈ 1.82 µM) in assay [2] (ATCC10031, Table 2). Besides, the MIC was found to be 0.8 µg/mL (≈ 1.82 µM) against Escherichia coli, NIHJ (Table 2); 1.6 µg/mL (≈ 3.64 µM) in assay [3] (MS27, Table 2, MS 27); 0.4 µg/mL (≈ 0.91 µM) in [4] (ATCC6538, Table 2, ATCC 6538 P, read-out: MIC).
